One assay concerns McA-RH7777 cells. Briefly: ATP released from cells after treatment (FIG. 10). It counts as cell-based, rat. The source says: (§1) FIG. 10 includes charts showing ATP released from MCA205, McA-RH7777, and Jurkat E6-1 cells at different numbers of pulses.
For another assay, the system named is MCA205 cells. Briefly: ATP released from cells after treatment (FIG. 10). It counts as cell-based, murine.
Excerpt: as §1

The mark [1] stands for this setting: higher concentration (100 μM), rank among treatment groups (NPS 15 J/mL highest).
Where [2] appears, read: both high and low concentrations (4 and 10 μM).

Results on 2 compounds are retold here after patent US20170333112A1, “Optimizing Total Energy Delivered in Nanosecond Pulses for Triggering Apoptosis in Cultured Cells” (Pulse Biosciences, Inc., priority 2016, published 2017).

For `COc1cccc2c1C(=O)c1c(O)c3c(c(O)c1C2=O)C[C@@](O)(C(=O)CO)C[C@@H]3O[C@H]1C[C@H](N)[C@H](O)[C@H](C)O1` [doxorubicin], the ATP released entry in the assay on McA-RH7777 cells (setting [1]) and in the assay on MCA205 cells (setting [1]) was “second highest amount of ATP” throughout. Besides, the “ATP levels compared with untreated cells” value in the assay with MCA205 cells (100 μM) is “significantly higher”.
With `O=C1c2c(O)ccc(O)c2C(=O)c2c(NCCNCCO)ccc(NCCNCCO)c21` [mitoxantrone], the ATP released entry with McA-RH7777 cells (setting [2]) and in the assay with MCA205 cells (setting [2]) was “comparatively small amount ATP” throughout.
